Results: DBAASP
Converted amounts (≈) assume the structure as drawn.

How the values were obtained:
Assay in all cases: ≥ marks a high value that may be exact or a test limit, other limits are often not marked, values filed in µg/mL are converted to µM
[1] = tested on: Bacillus subtilis CGMCC 1.3376
[2] = tested on: Escherichia coli CGMCC 1.8732
[3] = tested on: Klebsiella pneumoniae CGMCC 1.1736
[4] = tested on: Pseudomonas aeruginosa CGMCC 1.2421
[5] = tested on: Staphylococcus aureus CGMCC 1.8721
[6] = tested on: Staphylococcus epidermidis CGMCC 1.4260
[7] = tested on: Bacillus subtilis ATCC 6633
Escherichia coli K-12 = tested on: Escherichia coli K-12
[8] = tested on: Micrococcus luteus NCIMB 13267
[9] = tested on: Pseudomonas aeruginosa ATCC 27853
[10] = tested on: Staphylococcus aureus ATCC 6538
[11] = tested on: Bacillus subtilis DSM 402
[12] = tested on: Escherichia coli DSM 30083
[13] = tested on: Staphylococcus aureus ATCC 43300
[14] = tested on: Staphylococcus aureus DSM 20231
[15] = tested on: Streptococcus gordonii ATCC 10558
[16] = tested on: Streptococcus mutans GS-5
[17] = tested on: Streptococcus mutans UA159
[18] = tested on: Streptococcus sanguinis ATCC 49295

`CC[C@H](C)[C@H](NC(=O)[C@H](CO)NC(=O)CNC(=O)[C@@H](NC(=O)[C@@H](N)CCCN=C(N)N)[C@@H](C)CC)C(=O)N[C@@H](CC(C)C)C(=O)NCC(=O)N[C@@H](CCCN=C(N)N)C(=O)N[C@@H](CC(C)C)C(=O)N[C@@H](C)C(=O)N[C@@H](CCCCN)C(=O)NCC(=O)N[C@@H](CC(C)C)C(=O)N1CCC[C@H]1C(=O)N[C@H](C(=O)N[C@@H](CC(C)C)C(=O)N[C@H](C(=O)N[C@@H](CO)C(=O)N[C@@H](Cc1c[nH]c2ccccc12)C(=O)N[C@H](C(=O)N[C@@H](CCCCN)C(=O)N[C@@H](CC(N)=O)C(=O)N[C@@H](CCCN=C(N)N)C(N)=O)[C@@H](C)CC)[C@@H](C)CC)[C@@H](C)O` [RIGSILGRLAKGLPTLISWIKNR] was tested, and the MIC [1] was 6.25 µM (≈ 16 µg/mL), the MIC [2] was 6.25 µM (≈ 16 µg/mL) and the MIC [3] was 6.25 µM (≈ 16 µg/mL). It also gave an MIC [4] of 6.25 µM (≈ 16 µg/mL), an MIC [5] of 12.5 µM (≈ 32 µg/mL) and an MIC [6] of 3.13 µM (≈ 8.02 µg/mL).
In the case of `CC[C@H](C)[C@H](NC(=O)[C@H](CCC(=O)O)NC(=O)[C@H](CCC(N)=O)NC(=O)[C@H](CCC(=O)O)NC(=O)[C@H](CC(C)C)NC(=O)[C@H](C)NC(=O)[C@H](C)NC(=O)[C@@H](NC(=O)[C@H](CCC(=O)O)NC(=O)[C@H](CCC(N)=O)NC(=O)[C@H](CCC(=O)O)NC(=O)[C@H](CC(C)C)NC(=O)[C@H](C)NC(=O)[C@H](C)NC(=O)[C@@H](NC(=O)[C@@H](N)CCC(N)=O)[C@@H](C)CC)[C@@H](C)CC)C(=O)N[C@@H](C)C(=O)N[C@@H](C)C(=O)N[C@@H](CC(C)C)C(=O)N[C@@H](CCC(N)=O)C(=O)O` [QIAALEQEIAALEQEIAALQ], the MIC [7] is reported as ≥ 250 µM, the MIC (Escherichia coli K-12) is reported as ≥ 250 µM and the MIC [8] is reported as ≥ 250 µM. The MIC [9] was 250 µM (≈ 538 µg/mL) and the MIC [10] was 250 µM (≈ 538 µg/mL).
With `NCCCC[C@H](N)C(=O)N[C@@H](CCCN=C(N)N)C(=O)N[C@@H](Cc1c[nH]c2ccccc12)C(=O)N[C@@H](CCCN=C(N)N)C(=O)N[C@@H](Cc1c[nH]c2ccccc12)C(=O)N[C@@H](CCCN=C(N)N)C(=O)N[C@@H](Cc1c[nH]c2ccccc12)C(=O)O` [KRWRWRW] the MIC [11] was 2 µM (≈ 2.35 µg/mL), the MIC [12] was 18 µM (≈ 21.1 µg/mL) and the MIC [13] was 12.7 µM (≈ 14.9 µg/mL). The MIC [14] was ≥ 37 µM.
`CC(C)C[C@H](NC(=O)[C@H](CCCN=C(N)N)NC(=O)[C@H](Cc1ccccc1)NC(=O)[C@H](Cc1ccccc1)NC(=O)[C@@H](NC(=O)[C@H](CO)NC(=O)[C@@H](N)CC(C)C)[C@@H](C)O)C(=O)N[C@@H](Cc1ccccc1)C(=O)N[C@@H](CC(N)=O)C(=O)NCC(=O)N[C@@H](CCCN=C(N)N)C(=O)N[C@@H](CCCN=C(N)N)C(=O)N[C@@H](CCCN=C(N)N)C(=O)N[C@@H](CCCN=C(N)N)C(=O)N[C@@H](CO)C(=O)N[C@H](C(=O)N[C@@H](CCC(N)=O)C(=O)N[C@@H](Cc1c[nH]c2ccccc12)C(=O)N[C@@H](CS)C(=O)N[C@@H](C)C(=O)O)C(C)C` [LSTFFRLFNGRRRRSVQWCA] was tested, and the MIC [15] was 19.9 µM (≈ 49.8 µg/mL), the MIC [16] was 5.33 µM (≈ 13.3 µg/mL) and the MIC [17] was 4.27 µM (≈ 10.7 µg/mL). For the same molecule, the MIC [18] was ≥ 39.8 µM.
